Reference: paper PMC12029836, “Phytotoxicity, Cytotoxicity, and Antimicrobial Activity of Triethanolammonium Amino Acids Salts” (Molecules, 2025)
Read-outs that look alike come from different tables or passages of the source.

Tests used:
[1] = tested on: Lepidium sativum L. seeds; settings: 24 h incubation, mean(±SD), n = 3
[2] = tested on: Lepidium sativum L. roots; settings: 24 h incubation, mean(±SD), n = 3
[3] = 0.01% (w/w) compound in the medium
[4] = 0.03% (w/w) compound in the medium
[5] = 0.05% (w/w) compound in the medium
[6] = 0.10% (w/w) compound in the medium
[7] = 0.30% (w/w) compound in the medium
[8] = 0.50% (w/w) compound in the medium
[9] = 1.00% (w/w) compound in the medium
[10] = 2.00% (w/w) compound in the medium
[11] = 3.00% (w/w) compound in the medium
[12] = 4.00% (w/w) compound in the medium
[13] = 5.00% (w/w) compound in the medium

SMILES | Inhibition of the Lepidium sativum seeds germination (ISG, %) [1, 3] | Inhibition of the Lepidium sativum seeds germination (ISG, %) [1, 4] | Inhibition of the Lepidium sativum seeds germination (ISG, %) [1, 5] | Inhibition of the Lepidium sativum seeds germination (ISG, %) [1, 6] | Inhibition of the Lepidium sativum seeds germination (ISG, %) [1, 7] | Inhibition of the Lepidium sativum seeds germination (ISG, %) [1, 8] | Inhibition of the Lepidium sativum seeds germination (ISG, %) [1, 9] | Inhibition of the Lepidium sativum seeds germination (ISG, %) [1, 10] | Inhibition of the Lepidium sativum seeds germination (ISG, %) [1, 11] | Inhibition of the Lepidium sativum seeds germination (ISG, %) [1, 12] | Inhibition of the Lepidium sativum seeds germination (ISG, %) [1, 13] | Inhibition of the root growth in pregerminated Lepidium sativum seeds (IRG, %) [2, 3] | Inhibition of the root growth in pregerminated Lepidium sativum seeds (IRG, %) [2, 4] | Inhibition of the root growth in pregerminated Lepidium sativum seeds (IRG, %) [2, 5] | Inhibition of the root growth in pregerminated Lepidium sativum seeds (IRG, %) [2, 8] | Inhibition of the root growth in pregerminated Lepidium sativum seeds (IRG, %) [2, 9] | Inhibition of the root growth in pregerminated Lepidium sativum seeds (IRG, %) [2, 10] | Inhibition of the root growth in pregerminated Lepidium sativum seeds (IRG, %) [2, 11] | Inhibition of the root growth in pregerminated Lepidium sativum seeds (IRG, %) [2, 12] | Inhibition of the root growth in pregerminated Lepidium sativum seeds (IRG, %) [2, 13] | further results
NC(CCC(=O)O)C(=O)O.OCCN(CCO)CCO.OCCN(CCO)CCO (stereo not drawn) [[TEA]2[Glu]] | 0.0(±0.0) % | 0.0(±0.0) % | 0.0(±0.0) % | 3.7(±0.9) % | 5.6(±0.9) % | 7.4(±0.9) % | 14.8(±2.5) % | 22.2(±2.2) % | 29.6(±1.7) % | 37.0(±0.5) % | 63.0(±0.5) % | 10.0(±2.9% | 18.1(±2.7) % | 21.3(±2.7) % | 44.4(±2.2) % | 51.5(±2.1) % | 68.2(±1.3) % | 78.5(±0.6) % | 87.0(±0.4) % | 90.5(±0.7) % | –
CC(C)[C@H](N)C(=O)O.OCCN(CCO)CCO [[TEA][Val]] | 0.0(±0.9) % | 0.0(±1.7) % | 0.0(±1.2) % | 0.0(±1.2) % | 1.9(±0.5) % | 3.8(±1.7) % | 5.7(±0.5) % | 17.0(±0.5) % | 28.3(±0.5) % | 34.0(±1.3) % | 52.8(±1.3) % | 11.6% | 11.9(±3.3) % | 21.7(±2.8) % | 54.8(±2.6) % | 62.9(±2.4) % | 73.3(±1.5) % | 77.6(±1.7) % | 82.0(±1.0) % | 89.9(±0.74) % | Inhibition of the root growth in pregerminated Lepidium sativum seeds (IRG, %) [2, 6]: 32.7(±2.9) %; Inhibition of the root growth in pregerminated Lepidium sativum seeds (IRG, %) [2, 7]: 49.1(±2.5) %
N[C@@H](Cc1c[nH]c2ccccc12)C(=O)O.OCCN(CCO)CCO [[TEA][Trp]] | 0.0(±0.0) % | 1.9(±0.5) % | 3.7(±1.3) % | 12.0(±0.8) % | 16.7(±2.2) % | 18.5(±1.8) % | 28.7(±1.3) % | 38.9(±1.6) % | 53.7% | 61.1(±1.4) % | 83.3(±0.8) % | 38.1% | 41.1(±1.2) % | 48.8(±1.0) % | 54.7(±1.0) % | 57.6(±0.8) % | 69.0(±0.8) % | 76.0(±0.7) % | 88.8(±0.6) % | 95.0(±0.4) % | Inhibition of the root growth in pregerminated Lepidium sativum seeds (IRG, %) [2, 6]: 51.9(±1.0) %; Inhibition of the root growth in pregerminated Lepidium sativum seeds (IRG, %) [2, 7]: 53.3(±0.4) %
NCC(=O)O.OCCN(CCO)CCO [[TEA][Gly]] | 0.0(±0.5) % | 0.0(±0.5) % | 1.7 (±1.2) % | 3.4 (±1.3) % | 6.9 (±0.8) % | 13.8(±2.6) % | 20.7(±3.1) % | – | 63.8% | 81.0(±1.7) % | 87.9(±0.9) % | 8.7% | 16.2(±1.8) % | 20.9(±2.0) % | 62.3(±1.3) % | 75.7(±0.7) % | 80.6(±0.6) % | 93.3(±0.5) % | 96.2(±0.4) % | 95.9(±0.4) % | Inhibition of the root growth in pregerminated Lepidium sativum seeds (IRG, %) [2, 6]: 20.6(±1.7) %; Inhibition of the root growth in pregerminated Lepidium sativum seeds (IRG, %) [2, 7]: 49.3(±1.3) %
N[C@@H](CC(=O)O)C(=O)O.OCCN(CCO)CCO.OCCN(CCO)CCO [[TEA]2[Asp]] | 1.8(±0.1) % | 3.6(±1.3) % | 7.3(±0.8) % | 9.1(±0.5) % | 12.7(±0.8) % | 16.4(±1.3) % | 18.2(±0.8) % | 19.1(±1.3) % | 20.0(±0.5) % | 30.9(±0.9) % | 50.9(±0.8) % | 7.7(±1.9) % | 8.6(±2.1) % | 11.6(±1.9) % | 36.6(±1.6) % | 40.7(±1.2) % | 65.4(±0.7) % | 76.7(±0.7) % | 82.2(±0.6) % | 86.2(±0.5) % | Inhibition of the root growth in pregerminated Lepidium sativum seeds (IRG, %) [2, 6]: 29.6(±2.0) %; Inhibition of the root growth in pregerminated Lepidium sativum seeds (IRG, %) [2, 7]: 32.6(±1.5) %
NC(=O)C[C@H](N)C(=O)O.OCCN(CCO)CCO [[TEA][Asn]] | 5.6(±2.9) % | 6.5(±1.3) % | 7.4(±0.5) % | 9.3(±1.3) % | 12.0(±0.9) % | 14.8(±2.4) % | 20.4(±2.6) % | 33.3(±2.9) % | 46.3(±0.9) % | 67.6(±2.9) % | 88.9(±1.4) % | 4.5(±1.6) % | 11.6(±1.6) % | 16.0(±1.6) % | 42.7(±1.5) % | 58.9(±1.1) % | 76.9(±1.0) % | 81.5(±0.9) % | 85(±0.8) % | 88.2(±0.7) % | Inhibition of the root growth in pregerminated Lepidium sativum seeds (IRG, %) [2, 6]: 32.5(±1.7) %; Inhibition of the root growth in pregerminated Lepidium sativum seeds (IRG, %) [2, 7]: 34.9%
